Several values for one entry are separate records, joined by “and”; a condition that tells them apart may be missing. Identical values can stand only once.
How the values were obtained:
Format in all cases: cell-based, human
[1] = test system: platelets in platelet-rich plasma (PRP); experiment: Light transmission aggregometry, platelet aggregation induced by arachidonic acid
Method: (§1) All the experiments were conducted using healthy adult volunteers not taking aspirin or other medications that affect platelet aggregation. Whole blood was collected into 0.105 M buffered sodium citrate as the anticoagulant. Platelet-rich plasma (PRP) was prepared by centrifugation of whole blood at 135×g for 20 min. The residual blood sample was then centrifuged at 2,500×g for 15 min to obtain platelet-poor plasma (PPP). Platelet counts in the PRP were determined using a Horiba Micros 60 cell counter. For LTA experiments, platelet counts in PRP were adjusted to 250,000/μL using autologous donor PPP as the diluent.
The stock vial (16 mM) of AA was diluted by adding 0.5 mL of deionized water to obtain a 1.6 mM AA solution. The AA solution was maintained on ice and was used within 6 hr of preparation.
The samples were incubated in a water bath at 37° C. for 30 min before performing the LTA experiments.
The adjusted PRP was incubated with indicated concentration of GoPE (Table 7) for 30 min at 37° C.
(§2) After incubation of PRP with test articles, 450 μL of PRP were transferred into aggregation cuvettes for LTA testing. All aggregation experiments were performed on a LTA-Chronolog 700 aggregometer with Aggrolink 8 software. The instrument was set for an optical mode of data acquisition and the stir bar speed was set to 1.200 rpm. Autologous PPP was used in the reference channel of the aggregometer and baselines were set prior to addition of agonists. Fifty (50) μL of working agonist solutions (AA, ADP, and Collagen) were added to the cuvettes and tracings recorded for a minimum of 6 minutes. The maximal aggregation (MA) response was calculated using Aggrolink software for reporting the data.

[2] = test system: platelets in platelet-rich plasma (PRP); experiment: Light transmission aggregometry, platelet aggregation induced by collagen
Method: Whole blood was collected into 0.105 M buffered sodium citrate as the anticoagulant. Platelet-rich plasma (PRP) was prepared by centrifugation of whole blood at 135×g for 20 min. The residual blood sample was then centrifuged at 2,500×g for 15 min to obtain platelet-poor plasma (PPP). Platelet counts in the PRP were determined using a Horiba Micros 60 cell counter. For LTA experiments, platelet counts in PRP were adjusted to 250,000/μL using autologous donor PPP as the diluent.
Twenty five (25) jμL of the stock solution of collagen (1 mg/ml) was added to 475 μL of collagen dilution buffer to obtain a 50 μg/ml working solution. Fifty (50) μL of collagen solution was added to 450 μL of adjusted PRP to perform aggregation tests. The final concentration of collagen used for aggregation testing was 5 μg/ml.
(§3) The samples were incubated in a water bath at 37° C. for 30 min before performing the LTA experiments. […]
as §2

[3] = test system: platelets in platelet-rich plasma (PRP); experiment: Light transmission aggregometry, platelet aggregation induced by adenosine diphosphate; conditions: for inhibition of platelet aggregation in the presence of 5 or 20 μM ADP: at any of the concentrations tested
Method: as §1
Stock solutions of ADP (200 μM) were prepared in saline and stored frozen at −80° C. A vial of stock ADP was thawed and further diluted in saline to obtain a 50 μM ADP solution. Fifty (50) μL of ADP solution (200 and 50 μM) were added to 450 μL of adjusted PRP to perform aggregation tests with 20 μM ADP and 5 μM ADP.
as §3, §2

[4] = 6-paradol 1 μM, individual donor
[5] = 6-paradol 10 μM, individual donor
[6] = 6-paradol 100 μM, individual donor
[7] = 6-paradol 1000 μM, individual donor
[8] = substance at 10 μM and higher (6-paradol: in most experiments)
[9] = substance at a concentration of 1 μM
[10] = Aspirin 10 μM, individual donor
[11] = Aspirin 100 μM, individual donor
[12] = Aspirin 1000 μM, individual donor

## CCCCCCCC(=O)CCc1ccc(O)c(OC)c1 [6-paradol]
[1]; 6-paradol 1 μM, Mean
  Maximal Percent Aggregation Response to 1.6 mM Arachidonic Acid: 82%
[1]; [4]
  Maximal Percent Aggregation Response to 1.6 mM Arachidonic Acid: 72% and 77% and 96% and 65% and 98%
[1]; 6-paradol 10 μM, Mean
  Maximal Percent Aggregation Response to 1.6 mM Arachidonic Acid: 51%
[1]; [5]
  Maximal Percent Aggregation Response to 1.6 mM Arachidonic Acid: 0% (2×) and 99% and 71% and 87%
[1]; 6-paradol 100 μM, Mean
  Maximal Percent Aggregation Response to 1.6 mM Arachidonic Acid: 2%
[1]; [6]
  Maximal Percent Aggregation Response to 1.6 mM Arachidonic Acid: 0% (4×) and 9%
[1]; 6-paradol 1000 μM, Mean
  Maximal Percent Aggregation Response to 1.6 mM Arachidonic Acid: 1%
[1]; [7]
  Maximal Percent Aggregation Response to 1.6 mM Arachidonic Acid: 0% (4×) and 3%
[1]; [8]
  inhibition of AA-mediated platelet aggregation: Near complete inhibition
[1]; [9]
  inhibition of AA-mediated platelet aggregation: did not significantly inhibit
[2]; 6-paradol 1 μM, Mean
  Maximal Percent Aggregation Response to 5 μg/ml Collagen: 89%
[2]; [4]
  Maximal Percent Aggregation Response to 5 μg/ml Collagen: 81% and 100% and 77% and 97% and 90%
[2]; 6-paradol 10 μM, Mean
  Maximal Percent Aggregation Response to 5 μg/ml Collagen: 95%
[2]; [5]
  Maximal Percent Aggregation Response to 5 μg/ml Collagen: 82% and 100% (2×) and 97% and 98%
[2]; 6-paradol 100 μM, Mean
  Maximal Percent Aggregation Response to 5 μg/ml Collagen: 85%
[2]; [6]
  Maximal Percent Aggregation Response to 5 μg/ml Collagen: 82% and 100% and 88% and 89% and 64%
[2]; 6-paradol 1000 μM
  inhibition of collagen-mediated platelet aggregation response: substantially inhibited
[2]; 6-paradol 1000 μM, Mean
  Maximal Percent Aggregation Response to 5 μg/ml Collagen: 41%
[2]; [7]
  Maximal Percent Aggregation Response to 5 μg/ml Collagen: 23% and 60% and 36% and 74% and 10%
[2]; 6-paradol concentrations of 100 μM or less
  inhibition of collagen-mediated platelet aggregation: did not significantly inhibit
[3]; 6-paradol 1 μM, Mean
  Maximal Percent Aggregation Response to 5 μM Adenosine Diphosphate: 77%
  Maximal Percent Aggregation Response to 20 μM Adenosine Diphosphate: 83%
[3]; [4]
  Maximal Percent Aggregation Response to 5 μM Adenosine Diphosphate: 83% and 81% and 92% and 50%
  Maximal Percent Aggregation Response to 20 μM Adenosine Diphosphate: 70% and 85% and 88% and 74% and 99%
[3]; 6-paradol 10 μM, Mean
  Maximal Percent Aggregation Response to 5 μM Adenosine Diphosphate: 74%
  Maximal Percent Aggregation Response to 20 μM Adenosine Diphosphate: 86%
[3]; [5]
  Maximal Percent Aggregation Response to 5 μM Adenosine Diphosphate: 77% and 78% and 96% and 46%
  Maximal Percent Aggregation Response to 20 μM Adenosine Diphosphate: 81% and 82% and 100% and 84% and 85%
[3]; 6-paradol 100 μM, Mean
  Maximal Percent Aggregation Response to 5 μM Adenosine Diphosphate: 63%
  Maximal Percent Aggregation Response to 20 μM Adenosine Diphosphate: 79%
[3]; [6]
  Maximal Percent Aggregation Response to 5 μM Adenosine Diphosphate: 57% and 67% and 81% and 45%
  Maximal Percent Aggregation Response to 20 μM Adenosine Diphosphate: 63% and 73% and 95% and 76% and 90%
[3]; 6-paradol 1000 μM, Mean
  Maximal Percent Aggregation Response to 5 μM Adenosine Diphosphate: 50%
  Maximal Percent Aggregation Response to 20 μM Adenosine Diphosphate: 66%
[3]; [7]
  Maximal Percent Aggregation Response to 5 μM Adenosine Diphosphate: 55% and 53% and 59% and 33%
  Maximal Percent Aggregation Response to 20 μM Adenosine Diphosphate: 53% and 67% (3×) and 78%
[3]
  inhibition of platelet aggregation in the presence of 5 or 20 μM ADP: did not significantly inhibit

## CC(=O)Oc1ccccc1C(=O)O [Aspirin, aspirin]
[1]; Aspirin 1 μM, Mean
  Maximal Percent Aggregation Response to 1.6 mM Arachidonic Acid: 69%
[1]; Aspirin 1 μM, individual donor
  Maximal Percent Aggregation Response to 1.6 mM Arachidonic Acid: 75% and 0% and 100% and 73% and 95%
[1]; Aspirin 10 μM, Mean
  Maximal Percent Aggregation Response to 1.6 mM Arachidonic Acid: 2%
[1]; [10]
  Maximal Percent Aggregation Response to 1.6 mM Arachidonic Acid: 0% (3×) and 1% and 7%
[1]; Aspirin 100 μM, Mean
  Maximal Percent Aggregation Response to 1.6 mM Arachidonic Acid: 1%
[1]; [11]
  Maximal Percent Aggregation Response to 1.6 mM Arachidonic Acid: 0% (4×) and 5%
[1]; Aspirin 1000 μM, Mean
  Maximal Percent Aggregation Response to 1.6 mM Arachidonic Acid: 2%
[1]; [12]
  Maximal Percent Aggregation Response to 1.6 mM Arachidonic Acid: 0% (3×) and 8%
[1]; [8]
  inhibition of AA-mediated platelet aggregation: near complete inhibition
[1]; [9]
  inhibition of AA-mediated platelet aggregation: did not significantly inhibit
[2]; Aspirin 1 μM, Mean
  Maximal Percent Aggregation Response to 5 μg/mL Collagen: 94%
[2]; Aspirin 1 μM, individual donor
  Maximal Percent Aggregation Response to 5 μg/mL Collagen: 100% (2×) and 82% and 92% and 97%
[2]; Aspirin 10 μM, Mean
  Maximal Percent Aggregation Response to 5 μg/mL Collagen: 91%
[2]; [10]
  Maximal Percent Aggregation Response to 5 μg/mL Collagen: 86% and 100% (2×) and 80% and 87%
[2]; Aspirin 100 μM, Mean
  Maximal Percent Aggregation Response to 5 μg/mL Collagen: 65%
[2]; [11]
  Maximal Percent Aggregation Response to 5 μg/mL Collagen: 52% and 92% and 61% and 90% and 28%
[2]; Aspirin 1000 μM, Mean
  Maximal Percent Aggregation Response to 5 μg/mL Collagen: 56%
[2]; [12]
  Maximal Percent Aggregation Response to 5 μg/mL Collagen: 39% and 75% and 52% and 83% and 32%
[2]; Homo sapiens, Platelet, read-out: inhibition of collagen-mediated platelet aggregation response relative to DMSO control
  inhibition at 1000 µM: ~37%
[3]; Aspirin 1 μM, Mean
  Maximal Percent Aggregation Response to 5 μM Adenosine Diphosphate: 82%
  Maximal Percent Aggregation Response to 20 μM Adenosine Diphosphate: 90%
[3]; Aspirin 1 μM, individual donor
  Maximal Percent Aggregation Response to 5 μM Adenosine Diphosphate: 78% and 83% and 92% and 73%
  Maximal Percent Aggregation Response to 20 μM Adenosine Diphosphate: 91% and 87% and 100% and 81% and 90%
[3]; Aspirin 10 μM, Mean
  Maximal Percent Aggregation Response to 5 μM Adenosine Diphosphate: 70%
  Maximal Percent Aggregation Response to 20 μM Adenosine Diphosphate: 80%
[3]; [10]
  Maximal Percent Aggregation Response to 5 μM Adenosine Diphosphate: 82% and 63% and 84% and 52%
  Maximal Percent Aggregation Response to 20 μM Adenosine Diphosphate: 78% (2×) and 92% and 68% and 84%
[3]; Aspirin 100 μM, Mean
  Maximal Percent Aggregation Response to 5 μM Adenosine Diphosphate: 71%
  Maximal Percent Aggregation Response to 20 μM Adenosine Diphosphate: 86%
[3]; [11]
  Maximal Percent Aggregation Response to 5 μM Adenosine Diphosphate: 63% and 94% and 75% and 53%
  Maximal Percent Aggregation Response to 20 μM Adenosine Diphosphate: 63% and 87% (2×) and 95% and 97%
[3]; Aspirin 1000 μM, Mean
  Maximal Percent Aggregation Response to 5 μM Adenosine Diphosphate: 74%
  Maximal Percent Aggregation Response to 20 μM Adenosine Diphosphate: 80%
[3]; [12]
  Maximal Percent Aggregation Response to 5 μM Adenosine Diphosphate: 71% and 90% and 86% and 50%
  Maximal Percent Aggregation Response to 20 μM Adenosine Diphosphate: 72% and 84% and 80% and 78% and 88%
[3]
  inhibition of platelet aggregation in the presence of 5 or 20 μM ADP: did not significantly inhibit

Reference: US11110146B2, “Methods for reducing platelet aggregation and treating cardiovascular disease and other medical disorders” (Paradise Health, Inc., priority 2014, dated 2021)
